Assay [1] has as its system Normal plasma pool. Nature of the assay: APTT assay (Roche APTT LS on Roche cobas t 711 coagulation analyzer), spiked normal plasma pool. Particulars: for effect of spiked amount on clotting time of APTT assay: increasing concentrations, normal plasma sample; for APTT result: normal plasma pool.
In assay [2] the test system is Normal plasma pool. Nature of the assay: Thrombin time assay (Roche Thrombin Time Reagent on Roche cobas t 711), spiked normal plasma pool. The following applies: for effect of spiked amount on clotting time of thrombin time (TT) assay: increasing concentrations, normal plasma sample; for TT result: normal plasma pool.
The subject of another assay is pathological plasma pool. Nature of the assay: Thrombin time assay (Roche Thrombin Time Reagent on Roche cobas t 711), spiked pathological plasma pool. The following applies: for TT result: pathological plasma pool. How it is done: [The source words this procedure for another target and reports this target under the same test.] A TT result of 19 s would result in a conjugated bilirubin concentration x=4.95 mg/dL. The calibration curve shown above was generated by spiking increasing amount of bilic to a normal plasma sample.

This note sets out measurements from patent US20190276872A1, “DETERMINATION OF INTERFERENTS IN A SAMPLE” (Roche Diagnostics Operations, Inc., priority 2016, published 2019).

As for `C=CC1=C(C)/C(=C/c2[nH]c(Cc3[nH]c(/C=C4\NC(=O)C(C)=C4C=C)c(C)c3CCC(=O)O)c(CCC(=O)O)c2C)NC1=O` [unconjugated bilirubin], in the assay with Normal plasma pool [1], the “effect of spiked amount on clotting time of APTT assay” value (“effect … of APTT assay” for short) is given as “influences APTT results only marginally”. Moreover, the APTT result with Normal plasma pool [1] (spiked at 6.60 mg/dL) amounted to 30.70 s; in the assay with Normal plasma pool [1] (spiked at 13.20 mg/dL) it was 31.10 s; in the assay with Normal plasma pool [1] (spiked at 19.80 mg/dL), 30.80 s; with Normal plasma pool [1] (spiked at 26.40 mg/dL), 30.80 s; with Normal plasma pool [1] (spiked at 33.00 mg/dL), 30.70 s; with Normal plasma pool [1] (spiked at 39.60 mg/dL), 30.50 s. Further, the APTT result in the assay on Normal plasma pool [1] (spiked at 46.20 mg/dL) is 30.50 s; in the assay with Normal plasma pool [1] (spiked at 52.80 mg/dL), 30.30 s; in the assay with Normal plasma pool [1] (spiked at 59.40 mg/dL) it was 30.60 s; with Normal plasma pool [1] (spiked at 66.00 mg/dL) it was 30.30 s. Moreover, the “effect of spiked amount on clotting time of thrombin time (TT) assay” value (shortened to “effect of spiked amount … (TT) assay”) in the assay with Normal plasma pool [2] was “does not seem to influence thrombin time results”. Besides, the TT result with Normal plasma pool [2] (spiked at 6.60 mg/dL) worked out at 16.30 s; in the assay with Normal plasma pool [2] (spiked at 13.20 mg/dL), 16.30 s; with Normal plasma pool [2] (spiked at 19.80 mg/dL) it was 16.00 s; in the assay with Normal plasma pool [2] (spiked at 26.40 mg/dL), 16.40 s; in the assay on Normal plasma pool [2] (spiked at 33.00 mg/dL) it was 16.40 s; in the assay on Normal plasma pool [2] (spiked at 39.60 mg/dL) it was 16.40 s. Also, the TT result worked out at 16.40 s in the assay with Normal plasma pool [2] (spiked at 46.20 mg/dL), 16.60 s in the assay with Normal plasma pool [2] (spiked at 52.80 mg/dL), 16.50 s in the assay with Normal plasma pool [2] (spiked at 59.40 mg/dL) and 16.60 s in the assay on Normal plasma pool [2] (spiked at 66.00 mg/dL).
Take conjugated bilirubin: the “effect … of APTT assay” value in the assay with Normal plasma pool [1] was “systematically prolonged”. In addition, the APTT result with Normal plasma pool [1] (spiked at 2.00 mg/dL) is 27.90 s; in the assay on Normal plasma pool [1] (spiked at 4.00 mg/dL) it was 28.40 s; in the assay with Normal plasma pool [1] (spiked at 6.00 mg/dL), 29.00 s; with Normal plasma pool [1] (spiked at 8.00 mg/dL), 29.70 s; in the assay with Normal plasma pool [1] (spiked at 9.00 mg/dL) it was 30.00 s; in the assay with Normal plasma pool [1] (spiked at 10.00 mg/dL), 30.50 s. In addition, the APTT result came out at 30.70 s with Normal plasma pool [1] (spiked at 11.00 mg/dL), 31.10 s in the assay with Normal plasma pool [1] (spiked at 12.00 mg/dL), 31.50 s in the assay with Normal plasma pool [1] (spiked at 13.00 mg/dL) and 32.20 s with Normal plasma pool [1] (spiked at 15.00 mg/dL). Further, in the assay with Normal plasma pool [2], the “effect of spiked amount … (TT) assay” value is given as “systematically prolonged”. The TT result in the assay on Normal plasma pool [2] (spiked at 1.00 mg/dL) is on record as 16.70 s; in the assay with Normal plasma pool [2] (spiked at 2.00 mg/dL), 17.40 s; in the assay on Normal plasma pool [2] (spiked at 3.00 mg/dL) it was 17.80 s; in the assay on Normal plasma pool [2] (spiked at 4.00 mg/dL), 18.50 s; with Normal plasma pool [2] (spiked at 5.00 mg/dL), 19.20 s; in the assay on Normal plasma pool [2] (spiked at 6.00 mg/dL) it was 19.50 s. For the same molecule, the TT result amounted to 20.00 s in the assay on Normal plasma pool [2] (spiked at 7.00 mg/dL), 20.50 s in the assay with Normal plasma pool [2] (spiked at 8.00 mg/dL), 21.30 s in the assay with Normal plasma pool [2] (spiked at 9.00 mg/dL) and 21.70 s in the assay with Normal plasma pool [2] (spiked at 10.00 mg/dL).
Take hemoglobin: the “effect … of APTT assay” value in the assay with Normal plasma pool [1] was “systematically shortened”. The APTT result with Normal plasma pool [1] (spiked at 130.00 mg/dL) came out at 28.40 s; in the assay with Normal plasma pool [1] (spiked at 260.00 mg/dL), 28.10 s; in the assay with Normal plasma pool [1] (spiked at 390.00 mg/dL), 27.90 s; in the assay with Normal plasma pool [1] (spiked at 520.00 mg/dL), 27.60 s; in the assay on Normal plasma pool [1] (spiked at 650.00 mg/dL) it was 27.40 s; with Normal plasma pool [1] (spiked at 780.00 mg/dL), 27.20 s. Besides, the APTT result with Normal plasma pool [1] (spiked at 910.00 mg/dL) worked out at 26.70 s; in the assay on Normal plasma pool [1] (spiked at 1040.00 mg/dL) it was 26.30 s; in the assay with Normal plasma pool [1] (spiked at 1170.00 mg/dL), 26.20 s; with Normal plasma pool [1] (spiked at 1300.00 mg/dL), 25.70 s. Also, in the assay on pathological plasma pool (increasing concentrations, pathological plasma sample), the “effect of spiked amount … (TT) assay” value is listed as “systematically shortened”. The TT result with pathological plasma pool (spiked at 130.00 mg/dL) came out at 38.50 s; in the assay with pathological plasma pool (spiked at 260.00 mg/dL), 38.10 s; in the assay with pathological plasma pool (spiked at 390.00 mg/dL) it was 37.60 s; in the assay on pathological plasma pool (spiked at 520.00 mg/dL) it was 36.70 s; with pathological plasma pool (spiked at 650.00 mg/dL), 36.30 s; in the assay with pathological plasma pool (spiked at 780.00 mg/dL), 35.70 s. For the same molecule, the TT result with pathological plasma pool (spiked at 910.00 mg/dL) is 35.00 s; with pathological plasma pool (spiked at 1040.00 mg/dL), 34.40 s; in the assay with pathological plasma pool (spiked at 1170.00 mg/dL), 33.60 s; with pathological plasma pool (spiked at 1300.00 mg/dL), 33.40 s.
